Experimental data: US5962471A, “Substituted 6- and 7-aminotetrahydroisoquinolinecarboxylic acids” (Hoechst Aktiengesellschaft, priority 1997, dated 1999)

Assays:
[1] = molecular target: T1, human stromelysin (MMP-3) (Homo sapiens, UniProt P08254); experiment: inhibition of the catalytic domain of human stromelysin (MMP-3), fluorogenic substrate; format: biochemical
T1 construct: catalytic domains of human stromelysin and of neutrophil collagenase; made in house
Method: (§1) Preparation and determination of the enzymatic activity of the catalytic domains of human stromelysin and of neutrophil collagenase.
(§2) The two enzymes--stromelysin (MMP-3) and neutrophil collagenase (MMP-8)--were prepared according to Ye et al., Biochemistry, vol. […] To measure the enzyme activity or the enzyme inhibitor action, 70 μl of buffer solution and 10 μl of enzyme solution are incubated for 15 minutes with 10 μl of a 10% strength (v/v) aqueous dimethyl sulfoxide solution, which optionally contains the enzyme inhibitor.
(§3) The buffer solution contains 0.05% Brij (Sigma, Deisenhofen, Germany) and also 0.1 mol/l tris/HCl, 0.1 mol/l NaCl, 0.01 mol/l CaCl2 and 0.1 mol/l piperazine-N,N'-bis[2-ethanesulfonic acid] (pH=6.5). The enzyme solution contains 5 μg/ml of one of the enzyme domains prepared according to Ye et al. The substrate solution contains 1 mmol/l of the fluorogen ic substrate (7-methoxycoumarin4-yl)acetyl-Pro-Leu-Gly-Leu-3-(2',4'-dinitrophenyl)-L-2,3-diaminopropionyl-Ala-Arg-NH2 (Bachem, Heidelberg, Germany).
(§4) The enzyme activity is shown as the extinction increase/minute.

[2] = tested on: neutrophil collagenase (MMP-8); experiment: inhibition of the catalytic domain of neutrophil collagenase (MMP-8), fluorogenic substrate; format: biochemical, human; conditions: fluorescence 328 nm (ex)/393 nm (em), pH=6.5, 15 min preincubation
Method: as §1, §2, §3, §4

T1 sequence (P08254 100-273 limits assumed): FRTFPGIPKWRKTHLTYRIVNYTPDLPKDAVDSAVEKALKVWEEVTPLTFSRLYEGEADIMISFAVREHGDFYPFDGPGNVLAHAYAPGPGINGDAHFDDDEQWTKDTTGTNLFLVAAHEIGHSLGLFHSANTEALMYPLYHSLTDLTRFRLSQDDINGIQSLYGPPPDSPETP

SMILES	IC50 [1] [nM]	IC50 [2] [nM]
CC(N)C(=O)Nc1ccc2c(c1)CN(S(=O)(=O)c1ccc(-c3ccc(Cl)cc3)cc1)[C@@H](C(=O)O)C2 (some centres unmarked) [Example 25]	200	10
C[C@H](NC(=O)OCc1ccccc1)C(=O)Nc1ccc2c(c1)CN(S(=O)(=O)c1ccc(-c3ccc(Cl)cc3)cc1)[C@@H](C(=O)O)C2 [Example 24]	300	60
COc1ccc(S(=O)(=O)N2Cc3cc(NC(=O)[C@H](C)N)ccc3C[C@@H]2C(=O)NO)cc1 [Example 30]	30	–
O=C(O)[C@H]1Cc2cc([N+](=O)[O-])ccc2CN1S(=O)(=O)c1ccc(-c2ccc(F)cc2)cc1 [Example 18]	–	20
O=C(O)[C@H]1Cc2ccc([N+](=O)[O-])cc2CN1S(=O)(=O)c1ccc(-c2ccc(F)cc2)cc1 [Example 17]	–	40
COc1ccc(S(=O)(=O)N2Cc3cc(NC(=O)[C@H](CC(=O)OC(C)(C)C)NC(=O)OCc4ccccc4)ccc3C[C@@H]2C(=O)NO)cc1 [Example 32]	400	10
Nc1ccc2c(c1)CN(S(=O)(=O)c1ccc(-c3ccc(F)cc3)cc1)[C@@H](C(=O)NO)C2 [Example 28]	20	2
O=C(O)[C@H]1Cc2cc([N+](=O)[O-])ccc2CN1S(=O)(=O)c1ccc(-c2ccc(Cl)cc2)cc1 [Example 16]	–	20
COc1ccc(S(=O)(=O)N2Cc3cc(NC(=O)CCC(=O)O)ccc3C[C@@H]2C(=O)NO)cc1 [Example 31]	20	4
Nc1ccc2c(c1)C[C@H](C(=O)O)N(S(=O)(=O)c1ccc(-c3ccc(F)cc3)cc1)C2 [Example 21]	200	8
CC(C)(C)OC(=O)Nc1ccc2c(c1)CN(S(=O)(=O)c1ccc(-c3ccc(F)cc3)cc1)[C@@H](C(=O)NO)C2 [Example 27]	100	10
CC(C)(C)OC(=O)Nc1ccc2c(c1)CN(S(=O)(=O)c1ccc(-c3ccc(F)cc3)cc1)[C@@H](C(=O)O)C2 [Example 20]	2000	100
Nc1ccc2c(c1)CN(S(=O)(=O)c1ccc(-c3ccc(F)cc3)cc1)[C@@H](C(=O)O)C2 [Example 22]	300	8
O=C(O)[C@H]1Cc2ccc([N+](=O)[O-])cc2CN1S(=O)(=O)c1ccc(-c2ccc(Cl)cc2)cc1 [Example 15]	–	30
COc1ccc(S(=O)(=O)N2Cc3cc(NC(=O)OC(C)(C)C)ccc3C[C@@H]2C(=O)NO)cc1 [Example 11]	20	3
COc1ccc(S(=O)(=O)N2Cc3cc(N)ccc3C[C@@H]2C(=O)NO)cc1 [Example 10, 2-(4-Methoxybenzenesulfonyl)-7-amino-1,2,3,4-tetrahydroisoquinoline-(R)-3-(N-hydroxy)carboxamide]	10	–
